Columns and labels:
Rattus norvegicus [1] = organism: Rattus norvegicus; assay: Inhibition of vasodilating activity was assessed on the epididymal portion of rat vas deferens in the absence of HbO2 in vitro; assay type: functional, organism-based
Rattus norvegicus [2] = organism: Rattus norvegicus; assay: Inhibition of vasodilating activity was assessed on the epididymal portion of rat vas deferens in the presence of HbO2 in vitro; assay type: functional
[3] = target: T1, Alpha-1D adrenergic receptor (Rattus norvegicus, UniProt P23944); assay: Partial affinity towards Alpha-1 adrenergic receptor was assessed on rat aortic strips
T1 sequence (P23944 whole entry): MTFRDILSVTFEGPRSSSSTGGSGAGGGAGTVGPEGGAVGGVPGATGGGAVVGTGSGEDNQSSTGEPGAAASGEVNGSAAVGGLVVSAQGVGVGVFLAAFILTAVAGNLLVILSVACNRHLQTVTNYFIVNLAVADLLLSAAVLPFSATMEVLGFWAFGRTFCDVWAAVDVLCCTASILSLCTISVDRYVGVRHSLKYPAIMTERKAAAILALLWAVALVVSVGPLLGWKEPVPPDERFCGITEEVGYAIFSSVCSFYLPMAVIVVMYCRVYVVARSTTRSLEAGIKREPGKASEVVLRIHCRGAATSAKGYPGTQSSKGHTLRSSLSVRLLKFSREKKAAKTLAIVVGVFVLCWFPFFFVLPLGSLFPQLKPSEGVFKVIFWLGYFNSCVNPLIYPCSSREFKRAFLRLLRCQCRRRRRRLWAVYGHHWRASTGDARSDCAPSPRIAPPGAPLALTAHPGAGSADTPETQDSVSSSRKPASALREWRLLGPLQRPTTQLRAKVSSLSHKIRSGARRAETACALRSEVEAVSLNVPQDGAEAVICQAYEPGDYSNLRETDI

Rattus norvegicus [4] = organism: Rattus norvegicus; assay: Inhibition of vasodilating activity was assessed on the rat aortic strips in the absence of HbO2 in vitro
Rattus norvegicus [5] = organism: Rattus norvegicus; assay: Inhibition of vasodilating activity was assessed on the rat aortic strips in the presence of HbO2 in vitro

`COc1cc2nc(N3CCC(S(=O)(=O)c4no[n+]([O-])c4-c4ccccc4)CC3)nc(N)c2cc1OC` gave an IC50 (Rattus norvegicus [1]) of 52 nM, an IC50 (Rattus norvegicus [2]) of 610 nM and a pA2 [3] of 8.96.

`COc1cc2nc(N3CCN(C(=O)c4no[n+]([O-])c4C(N)=O)CC3)nc(N)c2cc1OC` gave an IC50 (Rattus norvegicus [4]) of 2500 nM and a pA2 [3] of 8.25.

For `COc1cc2nc(N3CCC(S(=O)(=O)c4c(-c5ccccc5)no[n+]4[O-])CC3)nc(N)c2cc1OC`, the IC50 (Rattus norvegicus [1]) was 95 nM, the IC50 (Rattus norvegicus [2]) was 700 nM and the pA2 [3] was 8.49.

For `COc1cc2nc(N3CCC(S(=O)(=O)c4nonc4-c4ccccc4)CC3)nc(N)c2cc1OC`, the pA2 [3] was 9.17.

Compound `COc1cc2nc(N3CCN(C(=O)c4no[n+]([O-])c4C#N)CC3)nc(N)c2cc1OC` has an IC50 (Rattus norvegicus [4]) of 9.7 nM, an IC50 (Rattus norvegicus [5]) of 81 nM and a pA2 [3] of 8.04.

`COC(=O)c1c(C(=O)N2CCN(c3nc(N)c4cc(OC)c(OC)cc4n3)CC2)no[n+]1[O-]` was tested, and the IC50 (Rattus norvegicus [4]) was 630 nM and the pA2 [3] was 8.55.

— ChEMBL document CHEMBL1128669, “The furoxan system as a useful tool for balancing "hybrids" with mixed alpha 1-antagonist and NO-like vasodilator activities” (J Med Chem, 1995)
